Laboratory results published in patent publication US5985926A, “Method for inhibiting intracellular viral replication” (Cell Therapeutics, Inc., priority 1997, dated 1999).
“Also recorded” adds a separate entry of the source. Where two headings read alike, the source gives them in different places.

Key:
[1] = test system: HIV-1 in U1 cells (IL-6 mediated expression); assay: IL-6-mediated HIV-1 p24 antigen expression in chronically infected U1 cells; type: cell-based, HIV-1; human cells
Description: (§1) FIG. 17 illustrates a dose response curves of CT2576 on constitutive, TNF-α, and IL-6-mediated expression of HIV-1 in a chronically infected U1 cell line (left Y-axis) and of CT3537 on HIV expression in PBL acutely infected with the JR-CSF primary isolate (right Y-axis). U1 cells were incubated for four days after the addition of CT2576 with or without TNF-α (20 pg/ml) or IL-6 (1 ng/ml). PBL were inoculated with HIV at 10 ng virus/10^6 cells/well and incubated with various concentrations of CT3537 for 7 days. Each data point represents the average expression levels of HIV-1 p24-antigen in the cell supernatants measured by ELISA from triplicate samples with error bar indicating the SD.
(§2) Stable cell lines 293tar, 293tat and 293tat2 were generated by transfections using conditions described in (Tate et al., FASEB J. 4:227-231, 1990) with the plasmid pHIV.AP alone or along with either pHIV.tat or pSV2tat72, respectively. The assay of HIV-1 p24 antigen expression in the chronically HIV-1-infected promonocytic line U1 after 4 days and in acutely infected peripheral blood lymphocytes (PBL) after 7 days were described (Peterson et al., J. Clin. Invest. 89:574-580, 1992, and Brighty et al., Proc Natl. Acad. Sci. USA 88:7802-7805, 1991).
This example illustrates that CT2576 inhibited both constitutive and cytokine-induced HIV expression in a chronically-infected U1 cell line. A chronically HIV-1 infected human promonocyte cell line, U1 (Poli et al., J. Exp. Med. 172:151-158, 1990), was used as a model to see if the inhibitory effect of CT2576 on HIV-LTR driven reporter gene expression could be extended to block HIV replication per se in infected cells. TNF-α and IL-6 have been reported to upregulate the expression of HIV-1 in U1 cells (Poli et al., Proc Natl. Acad. Sci. USA 91:108-112, 1994). U1 cells were plated onto 24-well microtiter plates to study the dose-response effect of CT2576 on the constitutive (10^4 cells/well), TNF-α or IL-6 mediated (2×10^3 cells/well) expression of HIV-1. […]

[2] = test system: HIV-1 strain JR-CSF in PBL; assay: HIV-1 p24 antigen expression in acutely infected peripheral blood lymphocytes (PBL); type: cell-based, HIV-1; human cells; conditions: Human immunodeficiency virus 1, Lymphocyte, clinical isolate
Description: as §1
as §2, with “1991). […]” for “1991).”

AP mRNA in 293tat cells = assay: AP mRNA level in 293tat cells, Northern blot; type: cell-based, human; conditions: with TNF-α or IL-1β
Description: Nuclear extracts (A) from 293tat cells were tested by EMSA for activation of NFκB. A radiolabeled 40-mer covering the NFκB sequences in the HIV promoter was used as a probe. Cells were incubated with CT2576 at 12 μM, human TNF-α at 40 ng/ml or IL-1β at 1 ng/ml, or pre-incubated for 30 min. with CT2576 and then stimulated with TNF-α or IL-1β for 18 hr prior to making extracts. RNA was extracted from 293tat cells (B) after treatment with CT2576 without or with TNF-α or IL-1β for 18 hr. Northern blots analysis were performed using probes derived from AP cDNA and G3PDH cDNA as a control for normalization of mRNA level. AP activity was determined in cell supernatants from the various samples.
NFκB binding activity in nuclear extracts (Dignam et al., Nucleic Acids Res. 11:1475-1489, 1983) of cells was measured by electrophoretic mobility-shift assay (EMSA) (Carthew et al., Cell 43:439-448, 1985) using 5'-labeled double-stranded synthetic DNA with two NF-κB motifs. Northern blot analysis was performed with total RNA run on 1% agarose/formaldehyde gel and probed with ^32 P-labeled cDNA of AP and glyceraldehyde-3-phosphate dehydrogenase (G3PDH).

[3] = test system: PA formation in EB293 cells; assay: PA and lyso (bis) PA species in TNF-stimulated EB293 cells (HPLC peaks D and A5); type: cell-based, human; conditions: CT2576 10 μM, TNF 20 ng/ml
Description: One must first quantitatively and qualitatively separate PAs from the other lipids found in serum by a chemical extraction of lipids and high performance liquid chromatography (HPLC) to separate and detect PAs. Chemical extraction can be accomplished, for example, by the method of Bligh et al. (Canadian J. Biochem. Physiol. 37:911-917, 1959) or that of Folch et al. (J. Biol. Chem. 226:497-509, 1957). Briefly, the method of Bligh et al. involves an organic extraction of lipids from biological tissue homogenates or fluids. One volume of sample and three volumes of methanol:chloroform (2:1) are vigorously shaken for 2 min. One volume of chloroform is added and then shaken vigorously for 30 sec. One volume of water is added and then shaken vigorously for 30 sec. The mixture is filtered and the upper aqueous layer is discarded. The lower organic layer contains a mixture of lipid classes. The method of Folch et al. involves the extraction of lipids from biological tissue homogenates or body fluids. One volume of sample plus 20 volumes of chloroform:methanol (2:1) are vigorously shaken for 2 min. The mixture is filtered and an amount of 0.1 N KCl equal to 20% of the extraction mixture volume is added and the mixture is shaken vigorously for 2 min. The aqueous and organic phases are allowed to separate. The upper aqueous layer is discarded. […]

SMILES	IC50 ([1]; Human immunodeficiency virus 1, 96 h, read-out: IC50, IL-6 mediated HIV expression, U1 cells, 4 days)	IC50 ([1]; U1 cells, 4 days, read-out: IC50, IL-6 mediated HIV expression)	inhibition of IL-6 mediated HIV-1 expression (p24) ([1]; U1 cells, in words)	IC50 [2]	AP transcript / mRNA steady-state level (AP mRNA in 293tat cells)	PA mass (peak D), TNF-stimulated EB293 cells [3]	lyso (bis) PA species (peak A5), TNF-stimulated EB293 cells [3]	effect on cell viability / cytotoxicity (293-EBNA cells)
CCCCCCCCNCC(O)CCCCCCCCCn1c(=O)c2c(ncn2C)n(C)c1=O (centres unmarked) [CT2576, 1-(11-octylamino-10-hydroxyundecyl)-3,7-dimethylxanthine]	~1 µM	< 1 µM	inhibited	~1 µM	increase in mRNA level; also recorded: did not block expression at the transcription stage	reduced PA mass across all time points measured	increased lyso (bis) PA species across all time points	–
CCCCCCCCNCC(O)CCCCCCCCCN1C(=O)CCN(C)C1=O (centres unmarked) [CT1829, 3-(11-octylamino-10-hydroxyundecyl)-1-methyldihydrouracil]	–	–	–	–	–	–	–	minimal cytotoxic effects
